Reference: ChEMBL document CHEMBL4765241, “Identification and Preclinical Pharmacology of ((1 R,3 S)-1-Amino-3-(( S)-6-(2-methoxyphenethyl)-5,6,7,8-tetrahydronaphthalen-2-yl)cyclopentyl)methanol (BMS-986166): A Differentiated Sphingosine-1-phosphate Receptor 1 (S1P) Modulator Advanced into Clinical Trials” (J Med Chem, 2019)
One block for each compound: values may come before it. Calls of active or inactive are those of the source. No cut-off for these calls is given here.

Experiments:
[1] = target: Sphingosine 1-phosphate receptor 3 (Homo sapiens, UniProt Q99500); assay: Agonist activity at human recombinant S1P3 expressed in CHO cell membranes assessed as stimulation of [35S]-GTPgammaS binding measured after 45 mins by liquid scintillation counting assay; set-up: species or system Cell membrane
Sequence of Sphingosine 1-phosphate receptor 3 (Q99500 whole entry): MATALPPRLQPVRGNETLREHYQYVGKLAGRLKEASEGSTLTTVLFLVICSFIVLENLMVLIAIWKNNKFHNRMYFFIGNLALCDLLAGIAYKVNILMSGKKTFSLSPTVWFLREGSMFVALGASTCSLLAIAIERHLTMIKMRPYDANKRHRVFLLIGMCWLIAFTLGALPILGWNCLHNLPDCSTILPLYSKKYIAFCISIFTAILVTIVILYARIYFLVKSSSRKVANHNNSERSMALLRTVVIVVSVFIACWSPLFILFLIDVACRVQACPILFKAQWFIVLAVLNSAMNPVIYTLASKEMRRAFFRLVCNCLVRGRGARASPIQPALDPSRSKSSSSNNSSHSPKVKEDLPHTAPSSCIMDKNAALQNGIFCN

[2] = Cardiotoxicity in human iPSC derived cardiomyocytes assessed as reduction in beating rate at 1 nM measured over 2 hrs by multi-electrode array relative to control; type: toxicity, cell-based; set-up: scale not given: the % may be the effect or the level left; details: stem cell-derived cardiomyocyte, 0.001 µM
[3] = Pulmonary toxicity in Lewis rat assessed as elevation of BAL protein level at 1 mg/kg by advia1800 chemistry analyzer; type: organism-based; details: in vivo
[4] = Cardiotoxicity in human iPSC derived cardiomyocytes assessed as reduction in beating rate at 10 nM measured over 2 hrs by multi-electrode array relative to control; type: toxicity, cell-based; set-up: scale not given: the % may be the effect or the level left; details: stem cell-derived cardiomyocyte, 0.01 µM
Cerebellar cortex [5] = assay: Induction of remyelination in lysophosphatidylcholine-induced demyelination in wild-type CD1 mouse organotypic cerebellar slice assessed as myelination index at 0.01 to 10 nM incubated for 7 days by immunohistochemistry based three-dimensional brain cell culture assay (reference value: 50%); type: functional; details: dose 0.01-10 nM, time 7 day
[6] = Tmax in Sprague-Dawley rat at 1 mg/kg, po or 1 mg/kg, iv; type: ADME, organism-based; details: in vivo
Cerebellar cortex [7] = assay: Induction of remyelination in lysophosphatidylcholine-induced demyelination in wild-type CD1 mouse organotypic cerebellar slice at 0.01 to 10 nM incubated for 7 days by immunohistochemistry based three-dimensional brain cell culture assay; type: functional, tissue-based; details: dose 0.01-10 nM, time 7.0 day
[8] = target: T1, Sphingosine 1-phosphate receptor 4 (Homo sapiens, UniProt O95977); assay: Agonist activity at human recombinant S1P4 expressed in CHO cell membranes assessed as stimulation of [35S]-GTPgammaS binding measured after 45 mins by liquid scintillation counting assay; type: functional, Cell membrane
T1 sequence (O95977 whole entry): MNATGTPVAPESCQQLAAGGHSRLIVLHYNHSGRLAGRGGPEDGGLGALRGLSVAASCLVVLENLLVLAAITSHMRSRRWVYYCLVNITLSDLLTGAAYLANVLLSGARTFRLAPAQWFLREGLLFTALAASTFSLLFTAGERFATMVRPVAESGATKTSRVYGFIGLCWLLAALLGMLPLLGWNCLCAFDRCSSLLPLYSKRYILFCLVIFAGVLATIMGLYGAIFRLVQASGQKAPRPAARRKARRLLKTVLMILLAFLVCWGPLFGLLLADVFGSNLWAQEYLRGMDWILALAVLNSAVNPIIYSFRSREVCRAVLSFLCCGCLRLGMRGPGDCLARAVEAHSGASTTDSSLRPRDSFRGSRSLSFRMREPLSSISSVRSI

[9] = Tmax in Beagle dog at 0.3 mg/kg, po or 1 mg/kg, iv; type: ADME, organism-based, Canis lupus familiaris; details: in vivo
[10] = Tmax in cynomolgus monkey at 1 mg/kg, po or 1 mg/kg, iv; type: ADME, organism-based, Macaca fascicularis; details: in vivo
[11] = Antimigratory activity against human T cells assessed as inhibition of S1P-induced T cell migration preincubated for 10 mins followed by addition of S1P measured after 120 mins by calcein-AM dye based fluorescence analysis; type: functional
[12] = Half-life in Lewis rat at 2 mg/kg, po measured over 72 hrs by LC-MS/MS analysis; type: ADME, organism-based; details: in vivo
[13] = Drug metabolism in Lewis rat blood assessed as concentration of parent compound at 2 mg/kg, po measured at 24 hrs by LC-MS/MS analysis; type: ADME, organism-based; details: read-out: Ct
[14] = Ratio of drug metabolism in Lewis rat blood assessed as phosphate ester metabolite to parent drug at 2 mg/kg, po measured at 24 hrs by LC-MS/MS analysis; type: ADME, organism-based; details: in vivo
[15] = Pulmonary toxicity in Lewis rat assessed as elevation of BAL protein level at 25 mg/kg by advia1800 chemistry analyzer; type: organism-based; details: in vivo
Rattus norvegicus [16] = assay: Reduction in circulating lymphocytes in Lewis rat blood at 2 mg/kg, po measured at 24 hrs by hematology analyzer based analysis; type: functional; set-up: scale not given: the % may be the effect or the level left
Rattus norvegicus [17] = assay: Reduction in circulating lymphocytes in Lewis rat blood at 2 mg/kg, po measured at 4 hrs by hematology analyzer based analysis; type: functional; set-up: scale not given: the % may be the effect or the level left
Rattus norvegicus [18] = assay: Reduction in circulating lymphocytes in Lewis rat blood assessed as effective dose after oral dosing measured at 24 hrs by hematology analyzer based analysis; type: functional
[19] = Drug metabolism in Lewis rat blood assessed as concentration of parent compound at 2 mg/kg, po measured at 4 hrs by LC-MS/MS analysis; type: ADME, organism-based; details: read-out: Ct
Rattus norvegicus [20] = assay: Drug metabolism in Lewis rat blood assessed as concentration of phosphate ester metabolite formation at 2 mg/kg, po measured at 4 hrs by LC-MS/MS analysis; details: in vivo

EC50 [1]: > 1000 nM
Compound: CCCCCC[C@@H]1CCc2cc([C@H]3CC[C@](N)(COP(=O)(O)O)C3)ccc2C1

Compound: O=C(O)C[C@H]1CCCN(C[C@@H](O)c2ccc(-c3noc(-c4onc(-c5ccccc5)c4C(F)(F)F)n3)cc2)C1
Activity [2]: 36% | Activity [3]: 24.3 mg/dL | Activity [4]: 57%

Tmax [6]: 6 h | EC50 [8]: 3.4 nM | Tmax [9]: 6 h | EC50 [1]: > 1000 nM | Tmax [10]: 6 h | IC50 [11]: 0.6 nM
Compound: COc1ccccc1CC[C@@H]1CCc2cc([C@H]3CC[C@](N)(COP(=O)(O)O)C3)ccc2C1
Activity [2]: 11% | Activity (Cerebellar cortex [5]): 100% | Activity (Cerebellar cortex [7]): Active | Activity [4]: 27%

half-life [12]: 7 h | concentration at 24 h [13]: 40 nM | Ratio [14]: 0.75 | concentration at 4 h [19]: 170 nM | Drug metabolism (Rattus norvegicus [20]): 10 nM
Compound: COc1ccc(CC[C@H]2CCc3cc([C@H]4CC[C@](N)(CO)C4)ccc3C2)cc1
Activity [15]: 24.3 mg/dL | Activity (Rattus norvegicus [16]): 84% | Activity (Rattus norvegicus [17]): 33% | ED50 (Rattus norvegicus [18]): 0.6 mg/kg
